# Measured values: patent US4036840A, “2-Substituted-s-triazolo[1,5a]pyrimidines” (ICN Pharmaceuticals, priority 1975, dated 1977)
# Assays:
# [1] = tested on: anesthetized dogs; experiment: Hemodynamic activity in anesthetized dogs; assay type: in vivo, dog; conditions: 10 mg/Kg/hr; vehicle DMSO (Saline for 44-46)
# Method: Compounds 3, 41, 43-48, 51 were tested in anesthetized dogs for hemodynamic activities including cardiac output, stroke volume and heart rate. For management of low perfusion states such as cardiovascular shock and congestive heart failure, it is desirable to have increased cardiac output and increased stroke volume accompanied by a decrease or no change in heart rate.
# % CHANGE OF CARDIAC OUTPUT, STROKE VOLUME AND HEART RATE AT 10 mg/Kg/hr
# [2] = tested on: 3',5'-Cyclic AMP phosphodiesterase (PDE) from kidney; experiment: 3',5'-Cyclic AMP phosphodiesterase (PDE) inhibition, rabbit kidney enzyme (Fraction II, low Km); assay type: biochemical; conditions: relative to theophylline, cAMP about 1.7 × 10^-7 M, 30° C., 10 minutes, pH 7.5
# [3] = tested on: 3',5'-Cyclic AMP phosphodiesterase (PDE) from lung; experiment: 3',5'-Cyclic AMP phosphodiesterase (PDE) inhibition, rabbit lung enzyme (Fraction II, low Km); assay type: biochemical; conditions: relative to theophylline, cAMP about 1.7 × 10^-7 M, 30° C., 10 minutes, pH 7.5
# [4] = Solubility noted in the PDE test (Insoluble); assay type: physicochemical; conditions: compound not tested for PDE inhibition
# Method: With respect to the compounds which are indicated in Tables I, II and III as being insoluble, although such compounds have not undergone the inhibitory test of Example XVI, due to the similarity in structure to compounds which were tested, it is expected that in vivo testing of the compounds in forms other than solution will readily indicate phosphodiesterase enzyme inhibitory capability.
# [5] = tested on: isolated guinea pig heart preparation; experiment: Coronary dilation in isolated guinea pig heart preparation; conditions: 10 μg/ml, preliminary
# [6] = tested on: isolated guinea pig uteri; experiment: Smooth muscle relaxation of isolated guinea pig uteri; conditions: 2-10 μg/ml
# [7] = tested on: rats; experiment: Hypotensive activity (Weeks and Jones), mean blood pressure in rats; assay type: in vivo, rat; conditions: oral
# Method: Exper. Therap., 104, 646 (1960). At an oral dose of 50 mg/kg in rats, there was a % decrease in mean blood pressure at 1, 3, 6 hours of 11%, 13%, and 24%, respectively.
PDE Kidney; α (I50 theophylline / I50 compound) [2],PDE Lung; α (I50 theophylline / I50 compound) [3],SMILES,also measured
2.10,2.50,"Cc1cc(C)n2nc(SCc3ccccc3)nc2n1 [Compound 3, 2-benzylthio-5,7-dimethyl-s-triazolo[1,5a]pyrimidine]",% change of cardiac output [1]: -1%; % change of heart rate [1]: -7%; % change of stroke volume [1]: -7%
1.30,0.10,Cc1cc(C)n2nc(SC(C)C)nc2n1 [Compound 8],
0.25,0.50,CSc1nc2nc(C)cc(C)n2n1 [Compound 9],
0.50,0.10,Cc1cc(C)n2nc(SCC(C)C)nc2n1 [Compound 10],
0.00,0.50,CCOC(=O)C(Sc1nc2nc(C)cc(C)n2n1)C(=O)OCC [Compound 11],
0.70,2.00,Cc1cccc(CSc2nc3nc(C)cc(C)n3n2)c1 [Compound 14],
0.70,0.80,Cc1cc(C)n2nc(SCc3ccncc3)nc2n1 [Compound 18],
0.00,1.17,Cc1cc(C)n2nc(SCc3cccnc3)nc2n1 [Compound 19],
1.40,4.00,"Cc1cc(Cl)n2nc(SCc3ccccc3)nc2n1 [Compound 25, 2-benzylthio-7-chloro-5-methyl-s-triazolo[1,5a]pyrimidine]",
0.90,2.00,CCCNc1cc(C)nc2nc(SCc3ccccc3)nn12 [Compound 26],
3.40,8.00,Cc1cc(N(C)C)n2nc(SCc3ccccc3)nc2n1 [Compound 28],
8.00,5.30,Cc1cc(NN(C)C)n2nc(SCc3ccccc3)nc2n1 [Compound 33],
0.00,0.00,"CCOC(=O)c1cnc2nc(SCc3ccccc3)nn2c1O [Compound 34, 2-benzylthio-6-carbethoxy-7-hydroxy-s-triazolo [1,5a]pyrimidine]",
7.0,21.0,"CCCNc1c(C(=O)OCC)cnc2nc(SCc3ccccc3)nn12 [Compound 39, 2-benzylthio-6-carbethoxy-7-n-propylamino-s-triazolo[1,5a]pyrimidine]",coronary dilation [5]: coronary dialation

# Second part, the compound before the results:
SMILES,PDE Kidney; α (I50 theophylline / I50 compound) [2],PDE Lung; α (I50 theophylline / I50 compound) [3],also measured
"Cc1cc(C)n2nc(SCc3ccc(Cl)cc3)nc2n1 [Compound 4, 2-(p-chlorobenzylthio)-5,7-dimethyl-s-triazolo[1,5a]pyrimidine]",4.0,4.00,
CCCSc1nc2nc(C)cc(C)n2n1 [Compound 7],1.00,0.90,
Cc1cc(C)n2nc(SCc3ccc(C(=O)O)cc3)nc2n1 [Compound 12],0.70,1.20,
Cc1ccc(CSc2nc3nc(C)cc(C)n3n2)cc1 [Compound 13],1.00,6.20,
Cc1cc(C)n2nc(SCc3ccccc3C)nc2n1 [Compound 15],4.00,3.50,
Cc1cc(C)n2nc(SCc3cc4c(cc3Cl)OCO4)nc2n1 [Compound 16],,,Solubility [4]: Insoluble
Cc1cc(C)n2nc(SCc3c(C)ccc4ccccc34)nc2n1 [Compound 17],,,Solubility [4]: Insoluble
Cc1cc(C)n2nc(SCc3ccc4ccccc4n3)nc2n1 [Compound 20],0.70,2.00,
CCOC(=O)c1ccc(CSc2nc3nc(C)cc(C)n3n2)o1 [Compound 21],1.25,3.2,
Cc1cc(C)n2nc(SCC3CCCO3)nc2n1 (stereo not drawn) [Compound 22],0.00,0.60,
Cc1cc(C)n2nc(SCCc3ccccc3)nc2n1 [Compound 23],2.50,2.50,
"CCN(CC)c1cc(C)nc2nc(SCc3ccccc3)nn12 [Compound 27, 2-benzylthio-7-diethylamino-5-methyl-s-triazole[1,5a]pyrimidine]",2.30,4.20,coronary dilation [5]: coronary dialation; smooth muscle relaxation [6]: smooth muscle relaxants
Cc1cc(N2CCCCC2)n2nc(SCc3ccccc3)nc2n1 [Compound 30],3.20,10.0,
Cc1cc(N2CCOCC2)n2nc(SCc3ccccc3)nc2n1 [Compound 31],4.80,7.70,
"Cc1cc(NN)n2nc(SCc3ccccc3)nc2n1 [Compound 32, 2-benzylthio-7-hydrazino-5-methyl-s-triazolo[1,5a]pyrimidine]",,,"Solubility [4]: Insoluble; hypotensive activity ([7]; 25 mg/kg): significant hypotensive activity; hypotensive activity ([7]; 50 mg/kg): significant hypotensive activity; % decrease in mean blood pressure at 1 hour ([7]; 50 mg/kg, 1 hour): 11%; % decrease in mean blood pressure at 3 hours ([7]; 50 mg/kg, 3 hours): 13%; % decrease in mean blood pressure at 6 hours ([7]; 50 mg/kg, 6 hours): 24%"
"CCOC(=O)c1cnc2nc(SCc3ccccc3)nn2c1Cl [Compound 35, 2-benzylthio-6-carbethoxy-7-chloro-s-triazolo[1,5a]pyrimidine]",,,Solubility [4]: Insoluble
CCOC(=O)c1cnc2nc(SCc3ccccc3)nn2c1N1CCOCC1 [Compound 36],2.90,6.90,
CCOC(=O)c1cnc2nc(SCc3ccccc3)nn2c1NCc1ccccc1 [Compound 37],,,Solubility [4]: Insoluble
CCOC(=O)c1cnc2nc(SCc3ccccc3)nn2c1NCCO [Compound 38],,,Solubility [4]: Insoluble
"CCOC(=O)c1cnc2nc(SCc3ccccc3)nn2c1S [Compound 40, 2-BENZYLTHIO-6-CARBETHOXY-7-MERCAPTO-s-TRIAZOLO[1,5a] PYRIMIDINE]",,,Solubility [4]: Insoluble
"CCCc1cc(CCC)n2nc(SCc3ccccc3)nc2n1 [Compound 41, 2-benzylthio-5,7-di-n-propyl-1,2,4-triazolo[1,5a]pyrimidine]",,,% change of cardiac output [1]: +23%; % change of heart rate [1]: -4.2%; % change of stroke volume [1]: +27%
"CCCc1cc(CCC)n2nc(SCc3ccc(C)cc3)nc2n1 [Compound 43, 5,7-di-n-propyl-2-(4-methylbenzyl)thio-1,2,4-triazolo[1,5a]pyrimidine]",,,% change of cardiac output [1]: +34.3%; % change of heart rate [1]: -2.8%; % change of stroke volume [1]: +3.8%
"CCCc1cc(CCC)n2nc(SCc3ccc(C(=O)O)cc3)nc2n1 [Compound 44, 5,7-di-n-propyl-2-(4-carboxybenzyl)thio-1,2,4-triazolo[1,5a]pyrimidine]",,,% change of cardiac output [1]: +18%; % change of heart rate [1]: +0.2%; % change of stroke volume [1]: +18%
"CCCc1cc(CCC)n2nc(SCc3ccncc3)nc2n1 [Compound 45, 5,7-di-n-propyl-2-(4-picolyl)thio-1,2,4-triazolo[1,5a]pyrimidine]",,,% change of cardiac output [1]: +27%; % change of heart rate [1]: -8.1%; % change of stroke volume [1]: +39%
"CCCc1cc(CCC)n2nc(SCc3cccnc3)nc2n1 [Compound 46, 5,7-di-n-propyl-2-(3-picolyl)thio-1,2,4-triazolo[1,5a]pyrimidine]",,,% change of cardiac output [1]: +20%; % change of heart rate [1]: -10.9%; % change of stroke volume [1]: +35%
"CCCc1cc(CCC)n2nc(S(=O)(=O)Cc3ccccc3)nc2n1 [Compound 47, 2-benzylsulfonyl-5,7-di-n-propyl-1,2,4-triazolo[1,5a]pyrimidine]",,,% change of cardiac output [1]: +35.6%; % change of heart rate [1]: +0.2%; % change of stroke volume [1]: +34.7%
"CCCc1cc(CCC)n2nc(S(=O)(=O)Cc3ccc(C)cc3)nc2n1 [Compound 48, 5,7-di-n-propyl-2-(4-methylbenzyl)sulfonyl-1,2,4-triazolo[1,5a]pyrimidine]",,,% change of cardiac output [1]: +16.4%; % change of heart rate [1]: -14.3%; % change of stroke volume [1]: +36.1%
"CC(=O)Cc1cc(C)nc2nc(SCc3ccccc3)nn12 [Compound 51, 2-BENZYLTHIO-5-METHYL-7-(2-ACETONYL)-1,2,4-TRIAZOLO [1,5a]PYRIMIDINE]",,,% change of cardiac output [1]: +46.2%; % change of heart rate [1]: +3.3%; % change of stroke volume [1]: +42.0%
